Measured values: patent US9133204B2, “5-membered heterocyclic amides and related compounds” (H. Lundbeck A/S, priority 2007, dated 2015)

These molecules were tested against T1, P2X7 receptor (Homo sapiens, UniProt Q99572) (assay: High throughput P2X7 calcium mobilization assay (Example 4A)). Conditions: SH-SY5Y cells; 50% decrease in fluorescence response of cells exposed to 80 μM BzATP; flag after the MS data in Examples 1-2.
T1 construct: host or cells: SH-SY5Y
T1 sequence (Q99572 1-595): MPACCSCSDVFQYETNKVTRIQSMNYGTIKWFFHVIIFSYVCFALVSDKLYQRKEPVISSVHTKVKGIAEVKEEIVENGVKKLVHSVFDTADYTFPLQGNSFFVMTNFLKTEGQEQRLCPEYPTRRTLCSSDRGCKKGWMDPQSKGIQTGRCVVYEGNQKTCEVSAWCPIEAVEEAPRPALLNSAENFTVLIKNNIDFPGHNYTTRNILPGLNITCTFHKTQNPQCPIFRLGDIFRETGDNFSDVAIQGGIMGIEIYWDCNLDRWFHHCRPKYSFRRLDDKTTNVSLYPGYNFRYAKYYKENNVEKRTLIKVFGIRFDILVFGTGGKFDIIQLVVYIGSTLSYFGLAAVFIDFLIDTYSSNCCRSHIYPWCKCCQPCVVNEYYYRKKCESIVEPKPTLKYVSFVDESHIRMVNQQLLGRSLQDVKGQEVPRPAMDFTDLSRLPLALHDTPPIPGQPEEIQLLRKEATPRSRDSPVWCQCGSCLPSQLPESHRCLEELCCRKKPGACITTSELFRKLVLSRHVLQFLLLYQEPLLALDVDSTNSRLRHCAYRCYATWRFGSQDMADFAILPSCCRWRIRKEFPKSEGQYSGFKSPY
Format: cell-based
Procedure: A. High Throughput Assay of P2X7 Receptors
SH-SY5Y cells, ATCC Number CRL-2266, (American Type Culture Collection, Manassas, Va.) are cultured under DMEM/High medium supplemented with 10% FBS, and 10 mM HEPES (Invitrogen Corp., Carlsbad, Calif.) in 5% CO2 and at 37° C. One day prior to the experiment, cells are plated at a density of 100,000 cells/well in a 96 well black/clear TC plate (Corning® Costar®, Sigma-Aldrich Co., St. Louis, Mo.). At the beginning of the experiment, the culture medium is removed and cells are incubated with 50 μL of 2.3 μM Fluo-4 AM dye (Invitrogen Corp.) in the assay solution (5 mM KCl, 9.6 mM NaH2PO4.H2O, 25 mM HEPES, 280 mM sucrose, 5 mM glucose, and 0.5 mM CaCl2; pH is adjusted to 7.4 with NaOH) for an hour at 37° C. After one hour dye incubation, wells are rinsed once with 50 μL assay solution, and are then incubated for an hour at room temperature with 100 μL assay solution containing the test compound. The final concentration of test compound generally ranges from 1 to 2500 nM; for positive control cells, no test compound is added. After the one hour incubation, plates are transferred to a FLIPR^TETRA instrument (Molecular Devices, Sunnyvale, Calif.) for calcium mobilization analysis.
For determination of antagonist activity, 50 μL, of P2X7 agonist (2′(3)-O-(4-benzoyl-benzoyl)adenosine 5′-triphosephate (BzATP; Sigma-Aldrich) in the assay solution is transferred using the FLIPR into the plate, such that the final agonist concentration is 80 μM (about EC50). In negative control cells, 50 μL of assay solution without agonist is added at this stage. The peak fluorescence signal over a 2 minute period is then measured.
First, the average maximum relative fluorescent unit (RFU) response from the negative control wells (no agonist) is subtracted from the maximum response detected for each of the other experimental wells. Second, average maximum RFU response is calculated for the positive control wells (agonist wells).

SMILES	IC50 [nM]
Cc1cnc(-n2cc(C(=O)NCC34CC5CC(CC(C5)C3)C4)c(C)n2)nc1C#N [1-(4-Cyano-5-methyl-pyrimidin-2-yl)-3-methyl-1H-pyrazole-4-carboxylic acid (adamantan-1-ylmethyl)-amide]	≤ 2000
Nc1nc(-n2cc(C(=O)NCC34CC5CC(CC(C5)C3)C4)c(C(F)(F)F)n2)ncc1F [Compound 1, N-(Adamantan-1-ylmethyl)-1-(4-amino-5-fluoropyrimidin-2-yl)-3-(trifluoromethyl)-1H-pyrazole-4-carboxamide]	≤ 2000
Nc1nc(-n2cc(C(=O)NCC3(c4cccnc4)CCCCC3)c(C(F)(F)F)n2)ncc1F [Compound 2, 1-(4-Amino-5-fluoropyrimidin-2-yl)-N-((1-(pyridin-3-yl)cyclohexyl)methyl)-3-(trifluoromethyl)-1H-pyrazole-4-carboxamide]	≤ 2000
O=C(NCC12CC3CC(CC(C3)C1)C2)c1cn(-c2ncc(F)cn2)nc1C(F)F [Compound 3, 3-(Difluoromethyl)-1-(5-fluoro-pyrimidin-2-yl)-1H-pyrazole-4-carboxylic acid (adamantan-1-ylmethyl)-amide]	≤ 2000
Cc1cnc(-n2cc(C(=O)NCC34CC5CC(CC(C5)C3)C4)c(C)n2)nc1C(=O)N1CCOCC1 [Compound 4, N-(Adamantan-1-ylmethyl)-3-methyl-1-[5-methyl-4-(morpholin-4-ylcarbonyl)pyrimidin-2-yl]-1H-pyrazole-4-carboxamide]	≤ 2000
COc1nn(-c2ncccn2)cc1C(=O)NCC12CC3CC(CC(C3)C1)C2 [Compound 5, N-(Adamantan-1-ylmethyl)-3-methoxy-1-pyrimidin-2-yl-1H-pyrazole-4-carboxamide]	≤ 2000
Nc1nn(-c2ncccn2)cc1C(=O)NCC12CC3CC(CC(C3)C1)C2 [Compound 6, N-(Adamantan-1-ylmethyl)-3-amino-1-pyrimidin-2-yl-1H-pyrazole-4-carboxamide]	≤ 2000
O=C(NCC12CC3CC(CC(C3)C1)C2)c1cn(-c2ncccn2)nc1Cl [Compound 7, N-(Adamantan-1-ylmethyl)-3-chloro-1-pyrimidin-2-yl-1H-pyrazole-4-carboxamide]	≤ 2000
O=C(NCC12CC3CC(CC(C3)C1)C2)c1cnn(-c2ncccn2)c1Cl [Compound 8, N-(Adamantan-1-ylmethyl)-5-chloro-1-pyridimin-2-yl-1H-pyrazole-4-carboxamide]	≤ 2000
CC(C)CC(CNC(=O)c1cn(-c2ncccn2)nc1Cl)c1ccc(C(F)(F)F)cc1 (centres unmarked) [Compound 9, 3-Chloro-N-{4-methyl-2-[4-(trifluoromethyl)phenyl]pentyl}-1-pyrimidin-2-yl-1H-pyrazole-4-carboxamide]	≤ 2000
O=C(NCC1(c2ccc(C(F)(F)F)cc2)CCCCC1)c1cn(-c2ncccn2)nc1Cl [Compound 10, 3-Chloro-1-pyrimidin-2-yl-N-({1-[4-(trifluoromethyl)phenyl]cyclohexyl}methyl)-1H-pyrazole-4-carboxamide]	≤ 2000
O=C(NCC1(c2cccnc2)CCCCC1)c1cn(-c2ncccn2)nc1Cl [Compound 11, 3-Chloro-N-[(1-pyridin-3-ylcyclohexyl)methyl]-1-pyrimidin-2-yl-1H-pyrazole-4-carboxamide]	≤ 2000
Cc1ccc(C2(CNC(=O)c3cn(-c4ncccn4)nc3Cl)CCCCC2)cn1 [Compound 12, 3-Chloro-N-{[1-(6-methylpyridin-3-yl)cyclohexyl]methyl}-1-pyrimidin-2-yl-1H-pyrazole-4-carboxamide]	≤ 2000
O=C(NCC1(c2cccnc2)CCCCC1)c1cn(-c2nccn3ccnc23)nc1C(F)(F)F [Compound 14, 1-Imidazo[1,2-a]pyrazin-8-yl-3-trifluoromethyl-1H-pyrazole-4-carboxylic acid (1-pyridin-3-yl-cyclohexylmethyl)-amide]	≤ 2000
O=C(CC12CC3CC(CC(C3)C1)C2)Nc1cn(-c2ncccn2)nc1C(F)(F)F [Compound 15, 2-Adamantan-1-yl-N-(1-pyrimidin-2-yl-3-trifluoromethyl-1H-pyrazol-4-yl)-acetamide]	≤ 2000
Cc1nn(C)c(Cc2ccccc2)c1C(=O)NCC12CC3CC(CC(C3)C1)C2 [Compound 16, 5-Benzyl-1,3-dimethyl-1H-pyrazole-4-carboxylic acid (adamantan-1-ylmethyl)-amide]	≤ 2000
O=C(NCC12CC3CC(CC(C3)C1)C2)c1ccnn1Cc1ccccc1 [Compound 17, N-(Adamantan-1-ylmethyl)-1-benzyl-1H-pyrazole-5-carboxamide]	≤ 2000
Cn1nc(-c2ccccc2)cc1C(=O)NCC1(c2cccnc2)CCCCC1 [Compound 19, 1-Methyl-3-phenyl-N-[(1-pyridin-3-ylcyclohexyl)methyl]-1H-pyrazole-5-carboxamide]	≤ 2000
Cc1ccc(C2(CNC(=O)c3cc(-c4ccccc4)nn3C)CCCCC2)cn1 [Compound 20, 1-Methyl-3-phenyl-N-{[1-(methylpyridin-3-yl)cyclohexyl]methyl}-1H-pyrazole-5-carboxamide]	≤ 2000

Results, then the molecule that gave them:

IC50 [nM]	SMILES
≤ 2000	Cn1nc(-c2ccccc2)cc1C(=O)NCC1(c2ccc(Cl)cc2)CCCCC1 [Compound 21, 1-Methyl-3-phenyl-N-[1-(4-chlorophenyl)cyclohexyl]methyl-1H-pyrazole-5-carboxamide]
≤ 2000	CC(C)CC(CNC(=O)c1sc(-c2ncccn2)nc1C(F)(F)F)c1ccc(Cl)cc1 (centres unmarked) [Compound 22, 4-trifluoromethyl-2-pyrimidin-2-yl-thiazole-5-carboxylic acid[2-(4-chloro-phenyl)-4-methyl-pentyl]-amide]
≤ 2000	O=C(NCC(c1ccc(Cl)cc1)N1CCCCC1)c1sc(-c2ncccn2)nc1C(F)(F)F (centres unmarked) [Compound 23, N-[2-(4-chlorophenyl)-2-piperidin-1-ylethyl]-2-pyrimidin-2-yl-4-(trifluoromethyl)-1,3-thiazole-5-carboxamide]
≤ 2000	CN1CCN(C2(CNC(=O)c3sc(-c4ncccn4)nc3C(F)(F)F)CCCCCC2)CC1 [Compound 24, N-{[1-(4-methylpiperazin-1-yl)cycloheptyl]methyl}-2-pyrimidin-2-yl-4-(trifluoromethyl)-1,3-thiazole-5-carboxamide]
≤ 2000	O=C(NCC1(c2cccnc2)CCCCC1)c1sc(N2CCCCS2(=O)=O)nc1C(F)(F)F [Compound 26, 2-(1,1-Dioxido-1,2-thiazinan-2-yl)-N-[(1-pyridin-3-ylcyclohexyl)methyl]-4-(trifluoromethyl)-1,3-thiazole-5-carboxamide]
≤ 2000	CN(C)[C@@H]1CCN(c2nc(C(F)(F)F)c(C(=O)NCC3(c4cccnc4)CCCCC3)s2)C1 [Compound 27, 2-((R)-3-Dimethylamino-pyrrolidin-1-yl)-4-trifluoromethyl-thiazole-5-carboxylic acid (1-pyridin-3-yl-cyclohexylmethyl)-amide]
≤ 2000	COc1ccc(-c2nc(C(F)(F)F)c(C(=O)NCC3(c4cccnc4)CCCCC3)s2)cn1 [Compound 28, 2-(6-methoxy-pyridin-3-yl)-4-trifluoromethyl-thiazole-5-carboxylic acid (1-pyridin-3-yl-cyclohexylmethyl)-amide]
≤ 2000	Cc1nc(-c2cccnc2)sc1C(=O)NCC1(c2ccc(Cl)cc2)CCCCC1 [Compound 29, N-{[1-(4-Chlorophenyl)cyclohexyl]methyl}-4-methyl-2-pyridin-3-yl-1,3-thiazole-5-carboxamide]
≤ 2000	Cc1nc(-c2cccnc2)sc1C(=O)NCC(CC(C)C)c1ccc(C(F)(F)F)cc1 (centres unmarked) [Compound 30]
≤ 2000	Cc1nc(-c2cccnc2)sc1C(=O)NCC(CC(C)C)c1ccc(Cl)cc1 (centres unmarked) [Compound 31, N-[2-(4-Chlorophenyl)-4-methylpentyl}-4-methyl-2-pyridin-3-yl-1,3-thiazole-5-carboxamide]
